# Measurements reported in ChEMBL document CHEMBL3407344, “Computer-guided drug repurposing: identification of trypanocidal activity of clofazimine, benidipine and saquinavir” (Eur J Med Chem, 2015).
# Activity calls are given as the source filed them. No cut-off for these calls is given here.
# Columns and labels:
# [1] = molecular target: Cruzipain (Trypanosoma cruzi) (UniProt P25779); experiment: Inhibition of Trypanosoma cruzi cruzaine at 100 uM using mMBz-Pro-Phe-Arg-pNA substrate incubated for 5 mins by UV-vis spectrophotometry
# Cruzipain (Trypanosoma cruzi), sequence (P25779 123-467 limits assumed): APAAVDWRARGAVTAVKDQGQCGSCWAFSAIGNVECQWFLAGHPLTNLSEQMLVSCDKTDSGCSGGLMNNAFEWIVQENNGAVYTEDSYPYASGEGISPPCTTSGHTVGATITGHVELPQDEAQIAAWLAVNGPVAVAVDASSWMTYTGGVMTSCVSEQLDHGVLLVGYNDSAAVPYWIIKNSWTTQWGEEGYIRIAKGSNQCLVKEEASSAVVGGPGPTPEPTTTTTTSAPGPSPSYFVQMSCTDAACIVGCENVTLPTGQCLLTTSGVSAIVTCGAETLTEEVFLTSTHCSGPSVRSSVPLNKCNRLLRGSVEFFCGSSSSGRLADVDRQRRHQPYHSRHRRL
# [2] = test system: Trypanosoma cruzi; experiment: Trypanocidal activity against GFP expressing Trypanosoma cruzi Y C57BL/6J mouse acute model of trypanosomal infection assessed as reduction in parasitemia at 100 mg/kg/day, ip measured at 10,14 and 20 days post infection; assay type: functional, organism-based
# [3] = test system: Trypanosoma cruzi; experiment: Trypanocidal activity against GFP expressing Trypanosoma cruzi Y C57BL/6J mouse acute model of trypanosomal infection assessed as reduction in cardiac amastigote nests counts at 100 mg/kg/day, ip measured at 10,14 and 20 days post infection by HE staining based conventional microscopy; assay type: functional, organism-based
# [4] = test system: Trypanosoma cruzi; experiment: (§1) Trypanocidal activity against GFP expressing Trypanosoma cruzi Y epimastigotes in rat H9C2 cell monolayers for 12 hrs infected with 30 mins compound pre-treated parasite obtained from infected African green monkey Vero cells assessed as reduction in cell invasion at 2.5 uM measured after 48 hrs by confocal microscopy; assay type: functional
# [5] = Toxicity in orally dosed mouse; assay type: organism-based; settings: in vivo, po
# [6] = test system: Trypanosoma cruzi; experiment: Trypanocidal activity against GFP expressing Trypanosoma cruzi Y epimastigotes assessed as effect on parasite motility at 1 uM to 20 uM measured after 1 to 3 days by hemocytometry based cell counting method; assay type: functional, organism-based
# [7] = test system: Trypanosoma cruzi; experiment: as §1, with “parasite count” for “cell invasion”; assay type: functional, organism-based
# [8] = test system: Trypanosoma cruzi; experiment: Trypanocidal activity against GFP expressing Trypanosoma cruzi Y epimastigotes assessed as inhibition of parasite proliferation at 1 uM to 20 uM and measured after 4 days by hemocytometry based cell counting method; assay type: functional; settings: 96 h
# [9] = test system: Trypanosoma cruzi; experiment: Trypanocidal activity against GFP expressing Trypanosoma cruzi Y epimastigotes assessed as effect on parasite morphology at 1 uM to 20 uM measured after 1 to 3 days by hemocytometry based cell counting method; assay type: functional, organism-based
# [10] = test system: Trypanosoma cruzi; experiment: Trypanocidal activity against GFP expressing Trypanosoma cruzi Y C57BL/6J mouse acute model of trypanosomal infection assessed as reduction in parasitemia at 10 mg/kg/day, ip measured at 10,14 and 20 days post infection; assay type: functional; settings: route intraperitoneal
# [11] = test system: Trypanosoma cruzi; experiment: as §1, with “24” for “12”, “parasite count” for “cell invasion”, “96” for “48”; assay type: functional, organism-based
# [12] = test system: H9c2; experiment: Cytotoxicity against rat H9c2 cells assessed as effect on metabolic activity at 2.5 uM by alamar blue assay; assay type: ADME, cell-based; settings: h9c2, 2.5 µM
# [13] = molecular target: Cruzipain (Trypanosoma cruzi) (UniProt P25779); experiment: Inhibition of Trypanosoma cruzi cruzaine using mMBz-Pro-Phe-Arg-pNA substrate incubated for 5 mins by UV-vis spectrophotometry
# [14] = test system: Trypanosoma cruzi; experiment: as §1, with “parasite count” for “cell invasion”, “5” for “2.5”; assay type: functional, organism-based
# [15] = test system: Plasma; experiment: Plasma concentration in leprosy patient at […], po dosed daily; assay type: ADME, organism-based; parameters: route oral; settings: human, in vivo
# [16] = test system: Trypanosoma cruzi; experiment: as §1, with “5” for “2.5”; assay type: functional
# [17] = test system: H9c2; experiment: Cytotoxicity against rat H9c2 cells assessed as effect on metabolic activity at 5 uM by alamar blue assay; assay type: ADME, cell-based; settings: h9c2, 5 µM
# [18] = test system: Trypanosoma cruzi; experiment: Trypanocidal activity against GFP expressing Trypanosoma cruzi Y C57BL/6J mouse acute model of trypanosomal infection assessed as reduction in parasitemia at 20 mg/kg/day, ip measured at 10,14 and 20 days post infection; assay type: functional; settings: route intraperitoneal
# [19] = test system: Trypanosoma cruzi; experiment: as §1, with “24” for “12”, “parasite count” for “cell invasion”, “5” for “2.5”, “96” for “48”; assay type: functional, organism-based
# [20] = test system: Trypanosoma cruzi; experiment: Trypanocidal activity against GFP expressing Trypanosoma cruzi Y epimastigotes assessed as inhibition of parasite proliferation at 20 uM measured after few hrs by hemocytometry based cell counting method; assay type: functional, organism-based
# [21] = test system: Trypanosoma cruzi; experiment: Trypanocidal activity against GFP expressing Trypanosoma cruzi Y C57BL/6J mouse acute model of trypanosomal infection assessed as reduction in cardiac amastigote nests counts at 20 mg/kg/day, ip measured at 10,14 and 20 days post infection by HE staining based conventional microscopy; assay type: functional, organism-based
# [22] = test system: Trypanosoma cruzi; experiment: Trypanocidal activity against GFP expressing Trypanosoma cruzi Y epimastigotes assessed as inhibition of parasite proliferation at 1 uM to 20 uM and measured during stationary phase by hemocytometry based cell counting method; assay type: functional, organism-based
# [23] = test system: H9c2; experiment: Cytotoxicity against rat H9c2 cells assessed as effect on metabolic activity at 10 uM by alamar blue assay; assay type: ADME, cell-based; settings: h9c2, 10 µM
# [24] = test system: Trypanosoma cruzi; experiment: as §1, with “24” for “12”, “parasite count” for “cell invasion”, “10” for “2.5”, “96” for “48”; assay type: functional, organism-based
# [25] = test system: Trypanosoma cruzi; experiment: as §1, with “10” for “2.5”; assay type: functional
# [26] = test system: Trypanosoma cruzi; experiment: as §1, with “parasite count” for “cell invasion”, “10” for “2.5”; assay type: functional, organism-based
smiles,measurement,setting,value
COc1ccc(CCN(C)CCCC(C#N)(c2ccc(OC)c(OC)c2)C(C)C)cc1OC (configuration not stated),inhibition,[1],inactive
O=C(Cn1ccnc1[N+](=O)[O-])NCc1ccccc1,inhibition,[2],Active
same,inhibition,[3],Active
COC(=O)C1=C(C)NC(C)=C(C(=O)OC2CCCN(Cc3ccccc3)C2)C1c1cccc([N+](=O)[O-])c1 (configuration not stated) [BENIDIPINE],fold change (FC),[4],3
same,LD50,[5],> 300 mg/kg
same,Activity,[6],Active
same,Activity,[7],Active
same,LC50,[8],19.5 µM
same,Activity,[9],Active
same,inhibition in vivo at 10 mg/kg/day,[10],40%
same,Activity,[11],Active
same,Activity,[12],Non-toxic
same,inhibition,[1],Active
same,inhibition,[13],Dose-dependent effect
CC(C)/N=c1\cc2n(-c3ccc(Cl)cc3)c3ccccc3nc-2cc1Nc1ccc(Cl)cc1 [CLOFAZIMINE],LD50,[5],5000 mg/kg
same,Activity,[14],Active
same,Activity,[6],Active
same,concentration,[15],2100 nM
same,LC50,[8],10.6 µM
same,fold change (FC),[16],3
same,Activity,[9],Active
same,Activity,[17],Non-toxic
same,inhibition,[1],Active
same,inhibition in vivo at 20 mg/kg/day,[18],40%
same,Activity,[19],Active
same,inhibition,[13],Dose-dependent effect
same,inhibition,[20],Active
same,inhibition,[21],Active
CC(C)(C)NC(=O)[C@@H]1C[C@@H]2CCCC[C@@H]2CN1C[C@@H](O)[C@H](Cc1ccccc1)NC(=O)[C@H](CC(N)=O)NC(=O)c1ccc2ccccc2n1 [SAQUINAVIR],Activity,[6],Active
same,inhibition,[22],Active
same,Activity,[9],Active
same,Activity,[23],Non-toxic
same,Activity,[24],Active
same,inhibition,[1],Active
same,fold change (FC),[25],3
same,Activity,[26],Active
same,inhibition,[13],Dose-dependent effect
